Literature values in patent US20190214145A1, “Method and systems for creating and screening patient metabolite profile to diagnose current medical condition, diagnose current treatment state and recommend new treatment regimen” (priority 2018, published 2019).

Tested on: not given
Conditions: vaporizing temperature

| SMILES | BP |
| --- | --- |
| C=CC(=C)CCC=C(C)C [β-myrcene] | 167 °C |
| CCCCCc1cc(O)c2c(c1)OC(C)(CCC=C(C)C)C=C2 (centres unmarked) [CBC] | 220 °C |
| CC1=CCC(C(C)(C)O)CC1 (stereo not drawn) [α-terpineol] | 217 °C |
| CC1=CCC2C(C1)C2(C)C (centres unmarked) [Δ-3-carene] | 168 °C |
| CC[C@H](CC[C@@H](C)[C@H]1CC[C@H]2[C@@H]3CC=C4C[C@@H](O)CC[C@]4(C)[C@H]3CC[C@]12C)C(C)C [β-sitosterol] | 134 °C |
| C=C(C)[C@H]1CC=C(C)CC1 [D-limonene] | 177 °C |
| CC1=CC[C@@H](C(C)(C)O)CC1 [α-terpinol] | 156 °C |
| CCCCCc1cc2c(c(O)c1C(=O)O)C=CC(C)(CCC=C(C)C)O2 (centres unmarked) [CBCA] | 145 °C |
| COc1cc(-c2cc(=O)c3c(O)c(C/C=C(\C)CCC=C(C)C)c(O)cc3o2)ccc1O [Cannflavin A] | 182 °C |
| C=C(C)[C@@H]1CCC(C)=C[C@H]1c1c(O)cc(CCCCC)c(C(=O)O)c1O [CBDA] | 120 °C |
| CCCCCc1cc2c(c(O)c1C(=O)O)[C@@H]1C=C(C)CC[C@H]1C(C)(C)O2 [Δ9THCA] | 104 °C |
| C=C1CC/C=C(\C)CC[C@@H]2[C@@H]1CC2(C)C [β-caryophyllene] | 199 °C |
| Cc1ccc(C(C)C)cc1 [P-cymene] | 177 °C |
| CC1=CCC(O)(C(C)C)CC1 (centres unmarked) [Terpinol-4-ol] | 209 °C |
| CC(C)=C1CC[C@@H](C)CC1=O [Pulegone] | 224 °C |
| CCCCCc1cc(O)c2c(c1)OC(C)(C)[C@@H]1CCC(C)=C[C@@H]21 [Δ9THC] | 157 °C |
| C=C(C)[C@@H]1CCC(C)=C[C@H]1c1c(O)cc(CCCCC)cc1O [CBD, reference compound] | 180 °C |
| CC12CCC(CC1)C(C)(C)O2 [1,8-cineole] | 176 °C |
| O=c1cc(-c2ccc(O)cc2)oc2cc(O)cc(O)c12 [Apigenin] | 178 °C |
| CC1(C)C2CCC1(C)C(O)C2 (centres unmarked) [Borneol] | 210 °C |
| C=CC(C)(O)CCC=C(C)C (centres unmarked) [Linalool] | 198 °C |

Tested on: not given
Conditions: upon inhalation, even in low concentrations

| SMILES | Sedation |
| --- | --- |
| CC1=CCC(C(C)(C)O)CC1 (stereo not drawn) [α-terpineol] | deeply sedating |
| CC(C)=CCCC(C)CCO (centres unmarked) [Citronellol] | deeply sedating |

Tested on: not given
Conditions: intravenous, amount equivalent to one cannabis cigarette

| SMILES | Heart rate | Phosphoenolpyruvate (PEP) | Systolic or diastolic arterial pressure |
| --- | --- | --- | --- |
| CCCCCc1cc(O)c2c(c1)OC(C)(C)[C@@H]1CCC(C)=C[C@@H]21 [Δ9THC] | significantly increases | decreases | without any change |

Tested on: submandibular gland
Conditions: rats, saliva from ducts of the submandibular gland

| SMILES | Ca 2+ concentration of saliva | Other electrolytes of saliva | Saliva flow rate | Total protein content of saliva |
| --- | --- | --- | --- | --- |
| Cc1c(C(=O)c2cccc3ccccc23)c2cccc3c2n1[C@H](CN1CCOCC1)CO3 [WIN55212-2T] | increase | no changes | significant decrease | increase |
| CCCCC/C=C\C/C=C\C/C=C\C/C=C\CCCC(=O)N[C@H](C)CO [(R)-(+)-methanandamide] | increase | no changes | significant decrease | increase |
| CCCn1c(C)c(C(=O)c2cccc3ccccc23)c2ccccc21 [JWH015] | increase | no changes | significant decrease | increase |
